Reference: patent US8530667B2, “Herbicides” (Syngenta Limited, priority 2007, dated 2013)

How the values were obtained:
Type in all cases: in vivo
[1] = test system: Alopecurus myosuroides (ALOMY); test: Example B pre-emergence herbicidal activity, glasshouse pot test; conditions: 312 h, Rate 250 g/ha, evaluated after 13 days, read-out: Pre-Emergence Activity ALOMY (100=total damage to plant; 0=no damage to plant)
Description: (§1) Seeds of a variety of test species were sown in standard soil in pots. After cultivation for one day (pre-emergence) or after 8 days cultivation (post-emergence) under controlled conditions in a glasshouse (at 24/16° C., day/night; 14 hours light; 65% humidity), the plants were sprayed with an aqueous spray solution derived from the formulation of the technical active ingredient in acetone/water (50:50) solution containing 0.5% Tween 20 (polyoxyethelyene sorbitan monolaurate, CAS RN 9005-64-5). The test plants were then grown in a glasshouse under controlled conditions in a glasshouse (at 24/16° C., day/night; 14 hours light; 65% humidity) and watered twice daily. After 13 days for pre and post-emergence, the test was evaluated (100=total damage to plant; 0=no damage to plant). Alopecurus myosuroides (ALOMY), Avena fatua (AVEFA), Setaria faberi (SETFA), Echinochloa crus-galli (ECHCG) and Amaranthus retoflexus (AMARE)

[2] = test system: Amaranthus retoflexus (AMARE); test: as above; conditions: Amaranthus retroflexus, 312 h, Rate 250 g/ha, evaluated after 13 days, read-out: Pre-Emergence Activity AMARE (100=total damage to plant; 0=no damage to plant)
Description: as §1

Avena fatua (AVEFA) [3] = test: as above; conditions: 312 h, Rate 250 g/ha, evaluated after 13 days, read-out: Pre-Emergence Activity AVEFA (100=total damage to plant; 0=no damage to plant)
Description: as §1

[4] = test system: Echinochloa crus-galli (ECHCG); test: as above; conditions: 312 h, Rate 250 g/ha, evaluated after 13 days, read-out: Pre-Emergence Activity ECHCG (100=total damage to plant; 0=no damage to plant)
Description: as §1

Setaria faberi (SETFA) [5] = test: as above; conditions: 312 h, Rate 250 g/ha, evaluated after 13 days, read-out: Pre-Emergence Activity SETFA (100=total damage to plant; 0=no damage to plant)
Description: as §1

[6] = test system: Alopecurus myosuroides (ALOMY); test: Example B post-emergence herbicidal activity, glasshouse pot test; conditions: 312 h, evaluated after 13 days, read-out: Post-emergence activity ALOMY (100=total damage to plant; 0=no damage to plant); for pest or weed control at 250 g/ha: rate 250 g/ha; for pest or weed control at 1000 g/ha: rate 1000 g/ha
Description: as §1

[7] = test system: Amaranthus retoflexus (AMARE); test: as above; conditions: Amaranthus retroflexus, 312 h, evaluated after 13 days, read-out: Post-emergence activity AMARE (100=total damage to plant; 0=no damage to plant); for pest or weed control at 250 g/ha: rate 250 g/ha; for pest or weed control at 1000 g/ha: rate 1000 g/ha
Description: as §1

Avena fatua (AVEFA) [8] = test: as above; conditions: 312 h, evaluated after 13 days, read-out: Post-emergence activity AVEFA (100=total damage to plant; 0=no damage to plant); for pest or weed control at 250 g/ha: rate 250 g/ha; for pest or weed control at 1000 g/ha: rate 1000 g/ha
Description: as §1

[9] = test system: Echinochloa crus-galli (ECHCG); test: as above; conditions: 312 h, evaluated after 13 days, read-out: Post-emergence activity ECHCG (100=total damage to plant; 0=no damage to plant); for pest or weed control at 250 g/ha: rate 250 g/ha; for pest or weed control at 1000 g/ha: rate 1000 g/ha
Description: as §1

Setaria faberi (SETFA) [10] = test: as above; conditions: 312 h, evaluated after 13 days, read-out: Post-emergence activity SETFA (100=total damage to plant; 0=no damage to plant); for pest or weed control at 250 g/ha: rate 250 g/ha; for pest or weed control at 1000 g/ha: rate 1000 g/ha
Description: as §1

SMILES	pest or weed control at 250 g/ha [1]	pest or weed control at 250 g/ha [2]	pest or weed control at 250 g/ha (Avena fatua (AVEFA) [3])	pest or weed control at 250 g/ha [4]	pest or weed control at 250 g/ha (Setaria faberi (SETFA) [5])	pest or weed control at 250 g/ha [6]	pest or weed control at 250 g/ha [7]	pest or weed control at 250 g/ha (Avena fatua (AVEFA) [8])	pest or weed control at 250 g/ha [9]	pest or weed control at 250 g/ha (Setaria faberi (SETFA) [10])	pest or weed control at 1000 g/ha [6]	pest or weed control at 1000 g/ha [7]	pest or weed control at 1000 g/ha (Avena fatua (AVEFA) [8])	pest or weed control at 1000 g/ha [9]	pest or weed control at 1000 g/ha (Setaria faberi (SETFA) [10])
CCc1sc(-c2ccc(Br)cc2)nc1C1C(=O)[C@@H]2[C@H](C1=O)[C@H]1CC[C@@H]2O1 (some centres unmarked) [Compound T29]	50%	20%	90%	90%	90%	100%	0%	100%	100%	100%	–	–	–	–	–
Cc1sc(-c2ccc(Br)cn2)nc1C1C(=O)[C@@H]2[C@H](C1=O)[C@H]1CC[C@@H]2O1 (some centres unmarked) [Compound T38]	0%	0%	0%	40%	90%	90%	0%	90%	100%	100%	–	–	–	–	–
Cc1sc(-c2ccc(OC(F)F)cc2)nc1C1C(=O)[C@@H]2[C@H](C1=O)[C@H]1CC[C@@H]2O1 (some centres unmarked) [Compound T41]	100%	0%	30%	100%	100%	100%	0%	90%	100%	100%	–	–	–	–	–
Cc1sc(-c2ccc(OC(F)F)cc2Cl)nc1C1C(=O)[C@@H]2[C@H](C1=O)[C@H]1CC[C@@H]2O1 (some centres unmarked) [Compound T52]	70%	0%	90%	100%	100%	100%	0%	100%	100%	100%	–	–	–	–	–
CCc1sc(-c2ccc(OC(F)F)cc2)nc1C1C(=O)[C@@H]2[C@H](C1=O)[C@H]1CC[C@@H]2O1 (some centres unmarked) [Compound T42]	90%	0%	30%	90%	100%	100%	0%	100%	100%	100%	–	–	–	–	–
Cc1sc(-c2ccc(Cl)s2)nc1C1C(=O)[C@@H]2[C@H](C1=O)[C@H]1CC[C@@H]2O1 (some centres unmarked) [Compound T37]	30%	0%	0%	40%	90%	50%	0%	10%	90%	90%	–	–	–	–	–
Cc1sc(-c2cc(C(F)(F)F)n(C)n2)cc1C1C(=O)[C@@H]2[C@H](C1=O)[C@H]1CC[C@@H]2O1 (some centres unmarked) [Compound T18]	–	–	–	–	–	–	–	–	–	–	20%	0%	0%	20%	40%
Cc1sc(-c2ccc([S+](C)[O-])cc2)nc1C1C(=O)[C@@H]2[C@H](C1=O)[C@H]1CC[C@@H]2O1 (some centres unmarked) [Compound T49]	20%	0%	0%	70%	90%	50%	0%	30%	100%	90%	–	–	–	–	–
CCc1sc(-c2ccc(Cl)cc2Cl)nc1C1C(=O)[C@@H]2[C@H](C1=O)[C@H]1CC[C@@H]2O1 (some centres unmarked) [Compound T45]	90%	0%	60%	100%	100%	100%	0%	100%	100%	100%	–	–	–	–	–
CCc1sc(-c2ccc(SC)cc2)nc1C1C(=O)[C@@H]2[C@H](C1=O)[C@H]1CC[C@@H]2O1 (some centres unmarked) [Compound T50]	40%	0%	0%	90%	90%	90%	0%	90%	100%	100%	–	–	–	–	–
CCc1sc(-c2ccc(Br)cn2)nc1C1C(=O)[C@@H]2[C@H](C1=O)[C@H]1CC[C@@H]2O1 (some centres unmarked) [Compound T43]	0%	0%	0%	80%	60%	90%	0%	100%	100%	100%	–	–	–	–	–
CCc1sc(-c2ccc(Cl)cc2)cc1C1C(=O)[C@@H]2[C@H](C1=O)[C@H]1CC[C@@H]2O1 (some centres unmarked) [Compound T17, 4-[5-(4-chloro-phenyl)-2-ethyl-thiophen-3-yl]-10-oxa-tricyclo[5.2.1.0*2,6*]decane-3,5-dione]	–	–	–	–	–	–	–	–	–	–	100%	70%	100%	100%	100%
CCc1sc(-c2ccc(Cl)cc2)nc1C1=C(OC(=O)C(C)(C)C)[C@@H]2[C@H](C1=O)[C@H]1CC[C@@H]2O1 (racemic) [Compound P3]	–	–	–	–	–	100%	0%	100%	100%	100%	–	–	–	–	–
Cc1[se]c(-c2ccc(Cl)cc2)nc1C1C(=O)[C@@H]2[C@H](C1=O)[C@H]1CC[C@@H]2O1 (some centres unmarked) [Compound T34, 4-[2-(4-chloro-phenyl)-5-methyl-selenazol-4-yl]-10-oxa-tricyclo[5.2.1.0*2,6*]decane-3,5-dione]	40%	0%	20%	70%	90%	–	–	–	–	–	–	–	–	–	–
COC(=O)c1ccc(-c2cc(C3C(=O)[C@@H]4[C@H](C3=O)[C@H]3CC[C@@H]4O3)c(C)s2)cc1 (some centres unmarked) [Compound T19]	–	–	–	–	–	–	–	–	–	–	10%	20%	0%	0%	30%
